Source: PubChem BioAssay (NCI)
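GI50 marks 50% less growth. TGI: total growth inhibition.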

Columns and labels:
Assay in all cases: NCI tumour cell line growth inhibition, 384-well format; in the data active = GI50 below about 0.43 µM; inactive = the rest
NCI-H226 lung = test system: NCI-H226 lung
NCI-H23 lung = test system: NCI-H23 lung
NCI-H322M lung = test system: NCI-H322M lung
NCI-H460 NSCLC = test system: NCI-H460 NSCLC
NCI-H522 lung = test system: NCI-H522 lung
NCI/ADR-RES ovarian = test system: NCI/ADR-RES ovarian
OVCAR-3 ovarian = test system: OVCAR-3 ovarian
OVCAR-4 ovarian = test system: OVCAR-4 ovarian
OVCAR-8 ovarian = test system: OVCAR-8 ovarian
PC-3 prostate = test system: PC-3 prostate
RPMI-8226 leukemia = test system: RPMI-8226 leukemia
RXF 393 renal = test system: RXF 393 renal
SF-268 CNS = test system: SF-268 CNS
SF-295 CNS = test system: SF-295 CNS
SF-539 CNS = test system: SF-539 CNS
SK-MEL-28 melanoma = test system: SK-MEL-28 melanoma
SK-MEL-5 melanoma = test system: SK-MEL-5 melanoma
SK-OV-3 ovarian = test system: SK-OV-3 ovarian
SN12C renal = test system: SN12C renal
SNB-19 CNS = test system: SNB-19 CNS
SNB-75 CNS = test system: SNB-75 CNS
SR leukemia = test system: SR leukemia
SW-620 colon = test system: SW-620 colon
T-47D breast = test system: T-47D breast
TK-10 renal = test system: TK-10 renal
U251 glioblastoma = test system: U251 glioblastoma
UACC-257 melanoma = test system: UACC-257 melanoma
UACC-62 melanoma = test system: UACC-62 melanoma
UO-31 renal = test system: UO-31 renal

O=C(C1CC1)N1CC[C@@H](Cc2n[nH]c(=O)n2-c2ccc(-c3ccc4occc4c3)cc2)C1
29.6 µM: TGI (SK-MEL-5 melanoma)
60.1 µM: TGI (TK-10 renal)
86.6 µM: TGI (NCI-H522 lung)
inactive: GI50 (NCI-H23 lung) 29.6 µM | GI50 (NCI-H322M lung) 36.2 µM | GI50 (NCI-H460 NSCLC) 29.7 µM | GI50 (NCI-H522 lung) 25.3 µM | GI50 (NCI/ADR-RES ovarian) 22.3 µM | GI50 (OVCAR-3 ovarian) 21.6 µM | GI50 (OVCAR-4 ovarian) 33.3 µM | GI50 (OVCAR-8 ovarian) 36.4 µM | GI50 (PC-3 prostate) 42.9 µM | GI50 (RXF 393 renal) 20.9 µM | GI50 (SF-268 CNS) 26 µM | GI50 (SF-295 CNS) 18.1 µM | GI50 (SF-539 CNS) 53.5 µM | GI50 (SK-MEL-28 melanoma) 31.1 µM | GI50 (SK-MEL-5 melanoma) 15.7 µM | GI50 (SK-OV-3 ovarian) 33.9 µM | GI50 (SN12C renal) 30 µM | GI50 (SNB-19 CNS) 50.1 µM | GI50 (SNB-75 CNS) 34.8 µM | GI50 (SR leukemia) 24.6 µM | GI50 (SW-620 colon) 57.6 µM | GI50 (T-47D breast) 29.8 µM | GI50 (TK-10 renal) 21.7 µM | GI50 (U251 glioblastoma) 28 µM | GI50 (UACC-257 melanoma) 38.5 µM | GI50 (UACC-62 melanoma) 34.2 µM | GI50 (UO-31 renal) 14.9 µM
91.3 µM: TGI (UACC-257 melanoma)
17.9 µM: TGI (RPMI-8226 leukemia)
64.4 µM: TGI (SR leukemia)
85.1 µM: TGI (NCI/ADR-RES ovarian)
active: GI50 (RPMI-8226 leukemia) 0.066 µM
59.4 µM: TGI (RXF 393 renal)
59 µM: TGI (OVCAR-3 ovarian)
> 100 µM: TGI (NCI-H23 lung) | TGI (NCI-H322M lung) | TGI (NCI-H460 NSCLC) | TGI (OVCAR-4 ovarian) | TGI (OVCAR-8 ovarian) | TGI (PC-3 prostate) | TGI (SF-268 CNS) | TGI (SF-539 CNS) | TGI (SK-MEL-28 melanoma) | TGI (SK-OV-3 ovarian) | TGI (SN12C renal) | TGI (SNB-19 CNS) | TGI (SNB-75 CNS) | TGI (SW-620 colon) | TGI (T-47D breast) | TGI (U251 glioblastoma) | TGI (UACC-62 melanoma) | TGI (UO-31 renal)
58.8 µM: TGI (NCI-H226 lung)
57.5 µM: TGI (SF-295 CNS)
